Source: US12357598B2, “Treatment of neurodevelopmental disorders” (THE REGENTS OF THE UNIVERSITY OF CALIFORNIA, priority 2018, dated 2025)

Assays:
Type in all cases: in vivo, mouse
[1] = tested on: sEH; experiment: Western blot of sEH in brain regions of juvenile offspring after MIA
Description: Administration of poly(I:C) into pregnant mice. The schedule of poly(I:C) treatment was performed as reported previously (13,36-39). The pregnant mice were injected intraperitoneally (i.p.) for six consecutive days from E12 to E17 with poly(I:C) (5.0 mg/kg/day, Sigma-Aldrich Co. Ltd., St. Louis, MO, USA) dissolved in physiological saline, or an equivalent volume (5 ml/kg) of saline. The male offspring were separated from their mothers at wearing (P21), and mice were caged each three-five in the groups in clear polycarbonate cage (22.5×33.8×14.0 cm). Mice were housed under controlled temperatures and 12-hour light/dark cycles (lights on between 07:00-19:00 h), with ad libitum food and water.
Collection of brain samples and oxylipin profiling. […]
Western blot analysis. […] 50 μg of protein were measured using the DC protein assay kit (Bio-Rad), and incubated for 5 min at 95° C., with an equal volume of 125 mM Tris-HCl, pH6.8, 20% glycerol, 0.1% bromophenol blue, 10% β-mercaptoethanol, 4% sodium dodecyl sulfate, and subjected to sodium dodecyl sulfate polyacrylamide gel electrophoresis, using 7.5% or AnyKD mini-gels (Mini-PROTEAN® TGX™ Precast Gel; Bio-Rad, CA, USA). […] After final three washes with TBST, bands were detected using enhanced chemiluminescence (ECL) prime Western Blotting Detection system (GE Healthcare Bioscience). […]

[2] = tested on: Ephx2 mRNA; experiment: Quantitative RT-PCR of Ephx2 mRNA in brain regions of juvenile offspring after MIA; conditions: juvenile offspring of poly(I:C)-treated mice vs saline-treated mice
Description: Gene expression analysis by quantitative real-time PCR. At juvenile (P28) stage, mice were sacrificed, and their brains were removed for measurement of gene expression of Ephx2 mRNA. Brain regions such as PFC, striatum, CA1, CA3 and DG of the hippocampus were dissected from brain on ice using a Leica microscope S9E (Leica Microsystems, Tokyo, Japan). A quantitative RT-PCR system (Step One Plus, Thermo Fisher Scientific, Yokohama, Japan) was used to measure mRNAs. The specific mRNA transcripts were quantified by TaqManGene Expression assays (Thermo Fisher Scientific, Yokohama, Japan). Expression levels of Ephx2 (Mm01313813_m1) was measured in brain tissue. Total RNA was extracted by use of an RNeasy Mini Kit (Qiagen, Hilden, Germany). The purity of total RNA was assessed by Biophotometer plus (Eppendorf, Hamburg, Germany). The RNA samples were used in the first strand cDNA synthesis with High Capacity cDNA Reverse Transcription Kit (#4368813 Thermo Fisher Scientific, Yokohama, Japan). All samples were tested in triplicate and average values were used for quantification. The average values were normalized to Vic-labeled Actb mRNA (Cat #4352341E: pre-developed TaqMan Assay Reagents, Thermo Fisher Scientific, Yokohama, Japan).

[3] = tested on: GAD67; experiment: GAD67 immunohistochemistry in mPFC, offspring after MIA; conditions: adult offspring of poly(I:C)-treated mice vs saline-treated group
Description: Immunohistochemistry. Immunohistochemistry of PV was performed as reported previously (37,39,59,60). Mice were anesthetized with 5% isoflurane and sodium pentobarbital (50 mg/kg), and perfused transcardially with 10 mL of physiological saline, followed by 40 mL of ice-cold 4% paraformaldehyde in 0.1M phosphate buffer (pH 7.4). Brains were removed from the skulls and post fixed overnight at 4° C. in the same fixative. For the immunohistochemical analysis, 50 μm-thick serial, coronal sections of brain tissue were cut in ice-cold 0.01M phosphate buffered saline (pH 7.5) using a vibrating blade microtome (VT1000s, Leica Microsystems, Tokyo, Japan). Free-floating sections were treated with 0.3% H2O2 in 50 mM Tris-HCl saline (TBS) for 30 min and were blocked in TBS containing 0.2% Triton X-100 (TBST) and 1.5% normal serum for 1 h at room temperature. […] The sections were imaged, and the staining intensity of PV (or GADO immunoreactivity in the inflalimbic (IL) and prelimbic (PrL) regions of mPFC was analyzed using a light micro-scope equipped with a CCD camera (Olympus IX70, Tokyo, Japan) and the SCION IMAGE software package. Images of sections within mPFC region were captured using a 100× objective with a Keyence BZ-X710 microscope (Keyence Corporation, Osaka, Japan).

polyriboinosinic-polyribocytidilic acid [Poly(I:C)]
sEH protein in striatum and hippocampus (CA1, CA3, DG) ([1]; poly(I:C) 5 mg/kg/day E12-E17): no changes
levels of sEH protein in the PFC ([1]; poly(I:C) 5 mg/kg/day E12-E17, vs saline-treated mice): significantly higher
expression of sEH (or Ephx2) mRNA in the PFC [2]: significantly higher
GAD67-IR in the PrL and IL of mPFC [3]: significantly lower
